In brackets after ≈: the same amount, converted by molar mass. Read-outs that look alike come from different tables or passages of the source.
Columns and labels:
Assay type in all cases: cell-based
[1] = test system: A549 (lung cancer) cell line; assay: Anti-cancer activity in vitro, A549 cell line
Procedure: (§1) The anti-cancer activity and toxicity of the compound according to the present invention were evaluated in vitro using A549 (lung cancer), SUN638 (gastric cancer), HCT116 (rectal cancer), and A431 (ovarian cancer) cell lines. The above four (4) cell lines were purchased from Cancer Research Institute, Seoul National University College of Medicine. […] The experiment was basically carried out according to the process described in Monks, A., et al, Journal of National Cancer Institute. 83: 757-766 (1991) and the results are represented in the following Tables 2 and 3.

[2] = test system: SUN638 (gastric cancer) cell line; assay: Anti-cancer activity in vitro, SUN638 cell line
Procedure: as §1

[3] = test system: A431 (ovarian cancer) cell line; assay: Anti-cancer activity in vitro, A431 cell line; conditions: A431 Cell Line
Procedure: as §1

[4] = test system: HCT116 (rectal cancer) cell line; assay: Anti-cancer activity in vitro, HCT116 cell line
Procedure: as §1

[5] = Homo sapiens, A549, read-out: LC50
[6] = Homo sapiens, A549 Cell Line, read-out: GI50
[7] = SUN638 Cell Line, read-out: GI50
[8] = Homo sapiens, HCT-116, read-out: LC50

SMILES	GI50 ([1]; A549 Cell Line) [µg/mL]	TGI50 ([1]; A549 Cell Line) [µg/mL]	GI50 ([2]; SUN638 Cell Line) [µg/mL]	TGI50 ([2]; SUN638 Cell Line) [µg/mL]	GI50 [3] [µg/mL]	TGI50 [3] [µg/mL]	GI50 ([4]; HCT116 Cell Line) [µg/mL]	TGI50 ([4]; HCT116 Cell Line) [µg/mL]	LC50 ([1]; A549 Cell Line) [µg/mL]	LC50 ([2]; SUN638 Cell Line) [µg/mL]	LC50 [3] [µg/mL]	LC50 ([4]; HCT116 Cell Line) [µg/mL]	LC50 [1, 5] [µg/mL]	GI50 [1, 6] [µg/mL]	GI50 [2, 7] [µg/mL]	LC50 ([2]; read-out: LC50) [µg/mL]	GI50 ([1]; Homo sapiens, A549) [µg/mL]	GI50 [2] [µg/mL]	GI50 ([4]; Homo sapiens, HCT-116) [µg/mL]	LC50 [4, 8] [µg/mL]
N.N.[Cl][Pt][Cl] [Cisplatin, cisplatin, reference compound]	3.8	47.3	1.7	13.3	3.2	28.7	2.9	32.77												
COc1cc2c(cc1OC)C(c1ccccc1)CN(C(=O)Nc1cc(C)c(C)nc1OC)CC2 (centres unmarked) [Compound 1, 3-[N-(5,6-dimethyl-2-methoxypyridin-3-yl)aminocarbonyl]-7,8-dimethoxy-1-phenyl-2,3,4,5-tetrahydro-3H-benzazepine]	1.21 (≈ 2.62 µM)	39.81	1.99 (≈ 4.31 µM)	7.07					>100	>100										
COc1cc2c(cc1OC)[C@H](c1ccccc1)CN(C(=O)Nc1nc3ccccc3nc1OC)CC2 [Compound 3, 3-[N-(2-methoxyquinoxalin-3-yl)aminocarbonyl]-(S)-7,8-dimethoxy-1-phenyl-2,3,4,5-tetrahydro-3H-benzazepine]	1.31 (≈ 2.7 µM)	5.62	1.47 (≈ 3.03 µM)	9.33	2.04 (≈ 4.21 µM)	26.30	1.31 (≈ 2.7 µM)	5.62	>100	>100	>100	>100								
COc1cc2c(cc1OC)[C@@H](c1ccccc1)CN(C(=O)Nc1nc3ccccc3nc1OC)CC2 [Compound 4, 3-[N-(2-methoxyquinoxalin-3-yl)aminocarbonyl]-(R)-7,8-dimethoxy-1-phenyl-2,3,4,5-tetrahydro-3H-benzazepine]	1.20 (≈ 2.48 µM)	100	1.86 (≈ 3.84 µM)	6.76			0.12 (≈ 0.248 µM)	3.54	>100	>100		>100								
COc1cc2c(cc1OC)C(c1ccc(F)cc1)CN(C(=O)Nc1nc3ccccc3nc1OC)CC2 (centres unmarked) [Compound 5, 3-[N-(2-methoxyquinoxalin-3-yl)aminocarbonyl]-7,8-dimethoxy-1-(4-fluoro)phenyl-2,3,4,5-tetrahydro-3H-benzazepine]	2.08 (≈ 4.14 µM)	46.98	1.69 (≈ 3.36 µM)	6.16			0.15 (≈ 0.298 µM)	4.07	>100	>100		>100								
COc1cc2c(cc1OC)C(c1ccc(Cl)cc1)CN(C(=O)Nc1nc3ccccc3nc1OC)CC2 (centres unmarked) [Compound 6, 3-[N-(2-methoxyquinoxalin-3-yl)aminocarbonyl]-7,8-dimethoxy-1-(4-chloro)phenyl-2,3,4,5-tetrahydro-3H-benzazepine]	2.69 (≈ 5.18 µM)	100	1.90 (≈ 3.66 µM)	6.91			0.39 (≈ 0.751 µM)	3.31	>100	>100		>100								
CCOc1nc2ccccc2nc1NC(=O)N1CCc2cc(OC)c(OC)cc2C(c2ccccc2)C1 (centres unmarked) [Compound 7, 3-[N-(2-ethoxyquinoxalin-3-yl)aminocarbonyl]-7,8-dimethoxy-1-phenyl-2,3,4,5-tetrahydro-3H-benzazepine]	3.38 (≈ 6.78 µM)	100	2.45 (≈ 4.91 µM)	7.41			0.15 (≈ 0.301 µM)	4.08	>100	>100		>100								
COc1nc2ccccc2nc1NC(=O)N1CCC(c2ccccc2)(c2ccccc2)CC1 [Compound 16, 1-[N-(2-methoxyquinoxalin-3-yl)aminocarbonyl]-4,4-diphenyl-piperidine]													> 100	1.02 (≈ 2.33 µM)	0.15 (≈ 0.342 µM)	> 100				
O=C(NC(c1ccccc1)c1ccccc1)N1CCC(c2ccccc2)(c2ccccc2)CC1 [Compound 17, 1-[N-(diphenylmethyl)aminocarbonyl]-4,4-diphenyl-piperidine]													> 100	6.45 (≈ 14.4 µM)	0.63 (≈ 1.41 µM)	> 100				
COc1ccc(C#N)cc1NC(=O)N1CCN(c2cc(C)cc(C)c2)CC1 [Compound 26, 1-[(2-methoxy-5-cyanophenyl)aminocarbonyl]-4-(3,5-dimethylphenyl)piperazine]													> 100	1.36 (≈ 3.73 µM)	2.51 (≈ 6.89 µM)	> 100				
Cc1cc(C)cc(N2CCN(C(=O)Nc3nc4ccccc4[n+]([O-])n3)CC2)c1 [Compound 28, 1-[(benzo-1,2,4-triazin-1-N-oxide-3-yl)aminocarbonyl]-4-(3,5-dimethylphenyl)piperazine]	1.31 (≈ 3.46 µM)	34.67	1.99 (≈ 5.26 µM)	7.07					>100	>100										
C=CCN(CC=C)c1nc(N(CC=C)CC=C)nc(N2CCN(C(=O)Nc3nc4ccccc4nc3OC)CC2)n1 [Compound 53]	2.75 (≈ 4.94 µM)	8.91	2.18 (≈ 3.92 µM)	5.49					>100	>100										
COc1cc(OC)cc(N2CCN(C(=O)n3ccnc3)CC2)c1 [Compound 58, 1-[(1H-imidazol-1-yl)carbonyl]-4-(3,5-dimethoxyphenyl) piperazine]													> 100			> 100	2.75 (≈ 8.69 µM)	2.39 (≈ 7.55 µM)	0.66 (≈ 2.09 µM)	> 100
C=C(C)CN(CC)c1nc(N2CCN(C(=O)n3ccnc3)CC2)nc(N(CC)CC(=C)C)n1 [Compound 63, 1-[(1H-imidazol-1-yl)carbonyl]-4-{4,6-bis-[ethyl-(2-methylallyl)amino]-[1,3,5]triazin-2-yl}piperazine]													> 100			> 100	2.23 (≈ 4.92 µM)	1.81 (≈ 3.99 µM)	1.77 (≈ 3.9 µM)	> 100
COc1cc2c(cc1OC)[C@@H](c1ccccc1)CN(C(=O)n1ccnc1)CC2 [Compound 68, 3-[(1H-imidazol-1-yl)carbonyl]-(R)-7,8-dimethoxy-1-phenyl-2,3,4,5-tetrahydro-3H-benzazepine]	0.23 (≈ 0.609 µM)	100	0.22 (≈ 0.583 µM)	97.72			0.24 (≈ 0.636 µM)	10.96	>100	>100		>100								
COc1cc2c(cc1OC)[C@H](c1ccccc1)CN(C(=O)n1ccnc1)CC2 [Compound 69, 3-[(1H-imidazol-1-yl)carbonyl]-(S)-7,8-dimethoxy-1-phenyl-2,3,4,5-tetrahydro-3H-benzazepine]	0.36 (≈ 0.954 µM)	97.72	0.13 (≈ 0.344 µM)	3.63			0.13 (≈ 0.344 µM)	10.71	>100	>100		>100								
COc1cc2c(cc1OC)C(c1ccc(Cl)cc1)CN(C(=O)n1ccnc1)CC2 (centres unmarked) [Compound 71, 3-[(1H-imidazol-1-yl)carbonyl]-7,8-dimethoxy-1-(4-chloro)phenyl-2,3,4,5-tetrahydro-3H-benzazepine]	4.78 (≈ 11.6 µM)	93.32	2.63 (≈ 6.39 µM)	9.12			2.69 (≈ 6.53 µM)	14.12	>100	>100		>100								
COc1ccc2c(c1)C(c1ccccc1)CN(C(=O)n1ccnc1)CC2 (centres unmarked) [Compound 72, 3-[(1H-imidazol-1-yl)carbonyl]-8-methoxy-1-phenyl-2,3,4,5-tetrahydro-3H-benzazepine]	2.23 (≈ 6.42 µM)	100	1.44 (≈ 4.14 µM)	7.24			0.10 (≈ 0.288 µM)	9.42	>100	>100		>100								
COc1ccc2c(c1)C(c1ccc(Cl)cc1)CN(C(=O)n1ccnc1)CC2 (centres unmarked) [Compound 74, 3-[(1H-imidazol-1-yl)carbonyl]-8-methoxy-1-(4-chloro)phenyl-2,3,4,5-tetrahydro-3H-benzazepine]							1.44 (≈ 3.77 µM)	7.24				>100								
O=C(N1CCC(c2ccccc2)(c2ccccc2)CC1)n1ccnc1 [Compound 80, 1-[(1H-imidazol-1-yl)carbonyl]-4,4-diphenyl-piperidine]													> 100			> 100	1.38 (≈ 4.16 µM)	1.62 (≈ 4.89 µM)	1.47 (≈ 4.44 µM)	> 100
